Patent US20230398232A1, “Composition and Use of Alternatively Formatted Anti-Mesothelin Antibodies for the Treatment of Cancer” (Navrogen, Inc., priority 2020, published 2023)
Square brackets hold non-standard residues; d marks the D form. Peptide text beside a SMILES is read from it. * marks the point of attachment. Dolaproine = CO[C@@H]([C@@H]1CCCN1)[C@@H](C)C(=O)O; Dil = CC[C@H](C)[C@H](NC)[C@@H](CC(=O)O)OC; X1 = C[C@@H](N*)[C@@H](O)c1ccccc1; NMeV = CN[C@H](C(=O)O)C(C)C

Assays:
[1] = system: NCI-N87, SW1990, HAY, YOU, OVCAR3 and A549 cells; test: Free cytotoxin cytotoxicity, crystal violet viability; assay type: cell-based, human; conditions: 72 hours, average over cell lines
Description: FIGS. 2A-C. Cytotoxic payloads and linkers examined for developing reformatted MES-1 antibody for optimal killing of immunoproficient and immunosuppressed mesothelin expressing cancer cells. FIG. 2A provides chemical structures of various types of cytotoxic payloads (i.e., microtubule inhibitors, DNA alkylating agents, topoisomerase inhibitors, and protein kinase inhibitors, see, e.g., Yaghoubi S, et al. J Cell Physiol 235:31-64, 2019; Wang R E, et al. J Am Chem Soc 137:3229-3232, 2015) tested against immunosuppressive and immunoproficient mesothelin expressing target cells. FIG. 2B provides chemical structures of various enzymatic and non-enzymatic cleavable and non-cleavable linkers tested to generate MES-ADCs against immunosuppressive and immune-proficient mesothelin expressing target cells. FIG. 2C provides an overview of the cytotoxicity of potential ADC payloads against mesothelin expressing cancer cells or control cell lines (Table 1). Briefly, 96-well tissue culture plates were seeded with 5,000 cells/well of mesothelin-positive NCI-N87 (CA125^+ gastric cancer), SW1990 (CA125^+ pancreatic cancer), HAY (CA125^+ mesothelioma), YOU (CA125^− mesothelioma), OVCAR3 (CA125^+ ovarian cancer) and A549 (mesothelin negative lung cancer) cells in 100 μLs of RPMI plus 7.5% heat inactivated fetal bovine serum (FBS), and 0.0001 to 500 ng/mL of cytotoxin or negative control. Cultures were incubated for 72 hours at 37° C. in 5% CO2 then quantified for viability using crystal violet staining. Dried stained wells were solubilized using 1% SDS in phosphate buffer saline (PBS) and quantified by colorimetric densitometry on a Varioskan™ multi-well plate reader at 570 nm. […] Experiments represent a minimum of triplicate wells. Statistical analysis was done using a two-sided Student' T-test.
To identify best candidates to meet this criteria, we first tested different classes of cytotoxins including DNA alkylating agents, microtubule inhibitors, and topoisomerase inhibitors (FIG. 2A). […]

[2] = system: mesothelioma; conditions: patients with elevated CA125 vs low CA125; cited from earlier work
[3] = system: follicular lymphoma; conditions: CA125 in normal range vs above normal range; cited from earlier work

## COc1cccc2c1C(=O)c1c(O)c3c(c(O)c1C2=O)C[C@@](O)(C(=O)CO)C[C@@H]3O[C@H]1C[C@H]2[C@H](O[C@@H]3[C@@H](OC)OCCN32)[C@H](C)O1 [PNU159682, reference compound]
[1]
  average EC50: 0.014 ng/mL

## CCc1c2c(nc3ccc(O)cc13)-c1cc3c(c(=O)n1C2)COC(=O)[C@]3(O)CC [SN38]
[1]
  average EC50: 2.44 ng/mL

## CC[C@H](C)[C@@H]([C@@H](CC(=O)N1CCC[C@H]1[C@H](OC)[C@@H](C)C(=O)N[C@H](C)[C@@H](O)c1ccccc1)OC)N(C)C(=O)[C@@H](NC(=O)[C@@H](NC)C(C)C)C(C)C [MMAE, Monomethyl Auristatin E] (H-[NMeV]V[Dil][Dolaproine]-X1)
[1]
  average EC50: 1.39 ng/mL

## amatuximab: anti-mesothelin antibody
[2]
  PFS and OS outcomes: worse progression-free survival (PFS) and overall survival (OS) outcomes

## rituximab: clinically used rituximab antibody
[3]
  improvement in 5-year progression-free survival: 31.4%
